Test results reported in US20260034123A1 (Cedilla Therapeutics, Inc., priority 2022, published 2026).
pIC50: −log10 of the molar value.

Tests used:
CDK2/Cyclin E1 = CDK2/Cyclin E1 (Homo sapiens, UniProt P24941); assay: ADP-Glo Luminescent Kinase Assay (CDK2/E1-37C); format: biochemical; details: 0.18 nM CDK2/Cyclin E1, 100 μM ATP, Histone H1, 37° C.; read-out: ADPGLO (CDK2/E1-37C): IC50
Summary of the method: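 Activated CDK2/Cyclin E1 (0.18 nM final) preincubated with compound 60 min at 37 °C, then reacted with 100 μM ATP and Histone H1 ([…]) for 90 min at 37 °C in HEPES pH 7.5 buffer. ADP-Glo luminescence normalized to % activity; IC50 from four-parameter fit.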

Kuramochi cells RB-WT = assay: IncuCyte Kuramochi cell proliferation assay, RB-WT; format: cell-based; details: 72 hours, cell count
Summary of the method: (§1)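 mApple-H2B-labelled Kuramochi cells were treated with a 10-point, half-log series (top 20 µM) and imaged at 0 and 72 h. Fluorescent nuclei were counted, and the 0–72 h fold change was normalized to DMSO wells. GI50 came from dose-response fits.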

Kuramochi cells RB-KO = assay: IncuCyte Kuramochi cell proliferation assay, RB-KO; format: cell-based; details: 72 hours, cell count, batch mean
Summary of the method: as §1

| SMILES | pIC50 (CDK2/Cyclin E1) | pIC50 (Kuramochi cells RB-WT) | pIC50 (Kuramochi cells RB-KO) |
| --- | --- | --- | --- |
| O=C(O)c1c(COC[C@@H]2CN(c3cc(C(F)(F)F)c(F)c4ncsc34)CC23CN(C(=O)C2(C(F)(F)F)CC2)C3)cccc1C1CCC(F)(F)CC1 [I′-48] | 5.00 to 5.30 | ≥ 6.30 | < 5.00 |
| O=C(O)c1c(COC[C@@H]2CN(c3cc(Cl)c(Cl)c4ncsc34)CC23CN(C(=O)C2(C(F)(F)F)CC2)C3)cccc1C1CCC(F)(F)CC1 [I′-49] | 5.30 to 6.30 | < 5.00 | < 5.00 |
| O=C(O)c1c(COC[C@@H]2CN(c3cc(F)c(F)c4nc(C(F)(F)F)sc34)CC23CN(C(=O)C2(C(F)(F)F)CC2)C3)cccc1C1CCC(F)(F)CC1 [I′-50] | < 5.00 | < 5.00 | < 5.00 |
| O=C(c1cnn(Cc2ccc(F)cc2)c1)N1CC(COCc2cccc(C3CCC(F)(F)CC3)c2C(=O)C(F)(F)F)C2(C1)CN(C(=O)C1(C(F)(F)F)CC1)C2 (stereo not drawn) [I′-56] | < 5.00 | 5.30 to 6.30 | < 5.00 |
| NC(=O)c1c(COC[C@@H]2CN(c3cc(C(=O)O)cc4ncsc34)CC23CN(C(=O)C2(C(F)(F)F)CC2)C3)cccc1C1CCC(F)(F)CC1 [I′-59] | < 5.00 | 5.30 to 6.30 | < 5.00 |
| O=C(O)c1c(COCC2CN(Cc3cnn(Cc4ccc(F)cc4)c3)C(=O)C23CN(C(=O)C2(C(F)(F)F)CC2)C3)cccc1C1CCC(C(F)(F)F)CC1 (stereo not drawn) [I′-60] | < 5.00 | < 5.00 | < 5.00 |
| O=C(O)c1c(COC[C@@H]2CN(c3cc(F)c(F)c4[nH]ccc34)CC23CN(C(=O)C2(C(F)(F)F)CC2)C3)cccc1C1CCC(F)(F)CC1 [I′-61] | < 5.00 | < 5.00 | < 5.00 |
| O=C(O)c1c(COC[C@H]2CN(c3cc(F)c(F)c4ncsc34)CC23CN(C(=O)C2(C(F)(F)F)CC2)C3)cccc1C1CCC(F)(F)CC1 [I′-62] | 5.30 to 6.30 | < 5.00 | < 5.00 |
| COc1ccc(C2CCC(F)(F)CC2)c(C(=O)O)c1COCC1CN(C(=O)c2cnn(Cc3ccc(F)cc3)c2)CC12CN(C(=O)C1(C(F)(F)F)CC1)C2 (stereo not drawn) [I′-67] | ≥ 6.30 | < 5.00 | < 5.00 |
| CC(C)(C(=O)N1CC2(CN(C(=O)c3cnn(Cc4ccc(F)cc4)c3)CC2COCc2cc(F)cc(C3CCC(F)(F)CC3)c2C(=O)O)C1)C(F)(F)F (stereo not drawn) [I′-68, 2-(4,4-difluorocyclohexyl)-4-fluoro-6-(((6-(1-(4-fluorobenzyl)-1H-pyrazole-4-carbonyl)-2-(3,3,3-trifluoro-2,2-dimethylpropanoyl)-2,6-diazaspiro[3.4]octan-8-yl)methoxy)methyl)benzoic acid] | ≥ 6.30 | 5.00 to 5.30 | < 5.00 |
| CC1(C)C[C@@H]1C(=O)N1CC2(CN(C(=O)c3cnn(Cc4ccc(F)cc4)c3)CC2/C=C\Cc2cccc(C3CCC(F)(F)CC3)c2C(=O)O)C1 (stereo partly drawn) [I′-69] | < 5.00 | 5.00 to 5.30 | < 5.00 |
| CC1(C)C[C@@H]1C(=O)N1CC2(CN(C(=O)c3cnn(Cc4ccc(F)cc4)c3)CC2COCc2cccc(C3CCC(F)(F)CC3)c2-c2nn[nH]n2)C1 (stereo partly drawn) [I′-70, (8-(((3-(4,4-difluorocyclohexyl)-2-(2H-tetrazol-5-yl)benzyl)oxy)methyl)-2-((S)-2,2-dimethylcyclopropane-1-carbonyl)-2,6-diazaspiro[3.4]octan-6-yl)(1-(4-fluorobenzyl)-1H-pyrazol-4-yl)methanone] | ≥ 6.30 | < 5.00 | < 5.00 |
| CC(C)(C(=O)N1CC2(C1)CN(c1cc(F)c(F)c3ncsc13)C[C@H]2COCc1cccc(C2CCC(F)(F)CC2)c1C(=O)O)C(F)(F)F [I′-71, (S)-2-(((6-(4,5-difluorobenzo[d]thiazol-7-yl)-2-(3,3,3-trifluoro-2,2-dimethylpropanoyl)-2,6-diazaspiro[3.4]octan-8-yl)methoxy)methyl)-6-(4,4-difluorocyclohexyl)benzoic acid] | ≥ 6.30 | 5.00 to 5.30 | < 5.00 |

The next lines start with results.

| pIC50 (CDK2/Cyclin E1) | SMILES | pIC50 (Kuramochi cells RB-WT) | pIC50 (Kuramochi cells RB-KO) |
| --- | --- | --- | --- |
| ≥ 6.30 | CC1CCC(c2cccc(COC[C@@H]3CN(c4cc(F)c(F)c5ncsc45)CC34CN(C(=O)C(C)(C)C(F)(F)F)C4)c2C(=O)O)CC1 (stereo partly drawn) [I′-47, (S)-2-(((6-(4,5-difluorobenzo[d]thiazol-7-yl)-2-(3,3,3-trifluoro-2,2-dimethylpropanoyl)-2,6-diazaspiro[3.4]octan-8-yl)methoxy)methyl)-6-(4-methylcyclohexyl)benzoic acid] | < 5.00 | < 5.00 |
| ≥ 6.30 | CC(C)(C(=O)N1CC2(CN(C(=O)c3cnn(Cc4cc(F)c(F)cc4F)c3)C[C@H]2COCc2cccc(C3CCC(F)(F)CC3)c2C(=O)O)C1)C(F)(F)F [I′-52, (S)-2-(4,4-difluorocyclohexyl)-6-(((2-(3,3,3-trifluoro-2,2-dimethylpropanoyl)-6-(1-(2,4,5-trifluorobenzyl)-1H-pyrazole-4-carbonyl)-2,6-diazaspiro[3.4]octan-8-yl)methoxy)methyl)benzoic acid] | 5.30 to 6.30 | < 5.00 |
| ≥ 6.30 | CC(C)(C(=O)N1CC2(CN(C(=O)c3cnn(Cc4cc(F)c(F)c(F)c4)c3)C[C@H]2COCc2cccc(C3CCC(F)(F)CC3)c2C(=O)O)C1)C(F)(F)F [I′-53] | 5.30 to 6.30 | < 5.00 |
| ≥ 6.30 | O=C(c1cnn(Cc2ccc(F)cc2)c1)N1C[C@@H](COCc2cccc(C3CCC(F)(F)CC3)c2-c2nn[nH]n2)C2(C1)CN(C(=O)C1(C(F)(F)F)CC1)C2 [I′-54, (S)-(8-(((3-(4,4-difluorocyclohexyl)-2-(2H-tetrazol-5-yl)benzyl)oxy)methyl)-2-(1-(trifluoromethyl)cyclopropane-1-carbonyl)-2,6-diazaspiro[3.4]octan-6-yl)(1-(4-fluorobenzyl)-1H-pyrazol-4-yl)methanone] | 5.00 to 5.30 | < 5.00 |
| ≥ 6.30 | O=C(c1cnn(Cc2ccc(F)cc2)c1)N1CC(COCc2cccc(C3CCC(F)(F)CC3)c2-c2noc(=O)[nH]2)C2(C1)CN(C(=O)C1(C(F)(F)F)CC1)C2 (stereo not drawn) [I′-55, 3-(2-(4,4-difluorocyclohexyl)-6-(((6-(1-(4-fluorobenzyl)-1H-pyrazole-4-carbonyl)-2-(1-(trifluoromethyl)cyclopropane-1-carbonyl)-2,6-diazaspiro[3.4]octan-8-yl)methoxy)methyl)phenyl)-1,2,4-oxadiazol-5(4H)-one] | 5.00 to 5.30 | < 5.00 |
| ≥ 6.30 | NC(=O)c1c(COC[C@@H]2CN(C(=O)c3cnn(Cc4ccccc4C(=O)O)c3)CC23CN(C(=O)C2(C(F)(F)F)CC2)C3)cccc1C1CCC(F)(F)CC1 [I′-57, (S)-2-((4-(8-(((2-carbamoyl-3-(4,4-difluorocyclohexyl)benzyl)oxy)methyl)-2-(1-(trifluoromethyl)cyclopropane-1-carbonyl)-2,6-diazaspiro[3.4]octane-6-carbonyl)-1H-pyrazol-1-yl)methyl)benzoic acid] | 5.00 to 5.30 | 5.30 to 6.30 |
| ≥ 6.30 | CC(C)(C(=O)N1CC2(CN(C(=O)c3cnn(Cc4ccc(F)c(F)c4)c3)C[C@H]2COCc2cccc(C3CCC(F)(F)CC3)c2C(=O)O)C1)C(F)(F)F [I′-58, (S)-2-(((6-(1-(3,4-difluorobenzyl)-1H-pyrazole-4-carbonyl)-2-(3,3,3-trifluoro-2,2-dimethylpropanoyl)-2,6-diazaspiro[3.4]octan-8-yl)methoxy)methyl)-6-(4,4-difluorocyclohexyl)benzoic acid] | < 5.00 | < 5.00 |
| ≥ 6.30 | O=C(c1cnn(Cc2ccc(F)cc2)c1)N1CC(COCc2cccc(C3CCC(F)(F)CC3)c2-c2n[nH]c(=O)o2)C2(C1)CN(C(=O)C1(C(F)(F)F)CC1)C2 (stereo not drawn) [I′-63, 5-(2-(4,4-difluorocyclohexyl)-6-(((6-(1-(4-fluorobenzyl)-1H-pyrazole-4-carbonyl)-2-(1-(trifluoromethyl)cyclopropane-1-carbonyl)-2,6-diazaspiro[3.4]octan-8-yl)methoxy)methyl)phenyl)-1,3,4-oxadiazol-2(3H)-one] | < 5.00 | < 5.00 |
| ≥ 6.30 | O=C(O)c1c(COCC2CN(c3ncnc4ncsc34)CC23CN(C(=O)C2(C(F)(F)F)CC2)C3)cccc1C1CCC(F)(F)CC1 (stereo not drawn) [I′-64, 2-(4,4-difluorocyclohexyl)-6-(((6-(thiazolo[4,5-d]pyrimidin-7-yl)-2-(1-(trifluoromethyl)cyclopropane-1-carbonyl)-2,6-diazaspiro[3.4]octan-8-yl)methoxy)methyl)benzoic acid] | 5.30 to 6.30 | 5.30 to 6.30 |
| ≥ 6.30 | CN(C)S(=O)(=O)NC(=O)c1c(COC[C@@H]2CN(C(=O)c3cnn(Cc4ccc(F)cc4)c3)CC23CN(C(=O)[C@H]2CC2(C)C)C3)cccc1C1CCC(F)(F)CC1 [I′-65, 2-(4,4-difluorocyclohexyl)-6-((((S)-2-((S)-2,2-dimethylcyclopropane-1-carbonyl)-6-(1-(4-fluorobenzyl)-1H-pyrazole-4-carbonyl)-2,6-diazaspiro[3.4]octan-8-yl)methoxy)methyl)-N—(N,N-dimethylsulfamoyl)benzamide] | < 5.00 | < 5.00 |
| ≥ 6.30 | CC(C)(C(=O)N1CC2(CN(C(=O)c3cnn(Cc4ccc(F)cc4)c3)C[C@H]2COCc2cccc(-c3ccc(C(F)(F)F)s3)c2C(=O)O)C1)C(F)(F)F [I′-66, (S)-2-(((6-(1-(4-fluorobenzyl)-1H-pyrazole-4-carbonyl)-2-(3,3,3-trifluoro-2,2-dimethylpropanoyl)-2,6-diazaspiro[3.4]octan-8-yl)methoxy)methyl)-6-(5-(trifluoromethyl)thiophen-2-yl)benzoic acid] | ≥ 6.30 | < 5.00 |
